# From patent publication US11712430B2, “Formulated cannabis oil powder by nanoemulsification, methods of producing and uses thereof” (KARNAK TECHNOLOGIES, LLC, priority 2018, dated 2023)
# Assay: Complete dissolution of agents to obtain the aqueous phase
# Assay type: physicochemical
# Conditions: as in Example 1, Stage 1
# Description: 0.25 gr ammonium glycyrrhizinate, (Sigma, 50531-50G, cas: 53956-04-0), 2 gr Maltodextrin, (Sigma, 419699-500G, cas: 9050-36-6), 2 gr sucrose, (Sigma, 59378-500G, cas: 57-50-1) and 14.3 gr triple distilled water (TDW) were mixed using a magnetic stirrer for 10 min at 35-40° C. until a complete dissolution and acquisition of an aqueous solution.
# It should be noted that among the various selected agents used for the preparation of the various formulations of the invention so far, cyclodextrin was proven to be incompatible in terms of a complete dissolution to obtain the aqueous phase as in Example 1, Stage 1.
substance,measurement,value
cyclodextrin,compatibility in terms of a complete dissolution to obtain the aqueous phase,incompatible
